In assay [1] the target is T1, TRPV2 (Homo sapiens, UniProt Q9Y5S1).
T1 construct: expressed in transfected cells; host or cells: HEK293T
T1 sequence (Q9Y5S1 1-764): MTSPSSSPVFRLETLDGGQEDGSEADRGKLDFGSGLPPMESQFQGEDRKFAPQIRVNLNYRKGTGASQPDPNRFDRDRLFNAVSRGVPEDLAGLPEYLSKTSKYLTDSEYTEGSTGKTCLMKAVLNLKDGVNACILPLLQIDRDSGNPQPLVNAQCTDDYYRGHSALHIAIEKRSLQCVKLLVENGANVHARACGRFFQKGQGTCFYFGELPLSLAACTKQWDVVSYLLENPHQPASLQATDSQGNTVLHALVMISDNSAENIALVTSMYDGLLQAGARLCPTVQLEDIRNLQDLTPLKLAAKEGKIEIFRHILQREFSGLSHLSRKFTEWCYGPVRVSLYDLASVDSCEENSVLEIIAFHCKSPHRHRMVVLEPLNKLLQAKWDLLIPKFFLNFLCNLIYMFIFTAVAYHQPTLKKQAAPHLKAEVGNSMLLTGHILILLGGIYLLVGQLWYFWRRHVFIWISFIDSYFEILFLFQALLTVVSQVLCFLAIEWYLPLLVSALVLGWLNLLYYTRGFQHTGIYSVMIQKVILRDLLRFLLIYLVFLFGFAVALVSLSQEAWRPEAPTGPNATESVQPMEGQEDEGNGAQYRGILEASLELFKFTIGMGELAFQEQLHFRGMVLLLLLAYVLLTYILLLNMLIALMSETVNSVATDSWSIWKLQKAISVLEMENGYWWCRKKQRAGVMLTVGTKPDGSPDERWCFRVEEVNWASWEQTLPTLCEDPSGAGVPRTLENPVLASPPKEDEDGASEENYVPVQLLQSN
Kind of assay: Electrophysiological recording, ligand activation of TRPV2. The class given is cell-based. The settings on record: IC 50 TRPV2. On the procedure: (§1) HEK293T cells were cultured in Dulbecco's modified Eagle culture medium under a 37° C., 5% CO2 environment, 10% fetal bovine serum, penicillin (100 U/mL), and streptomycin ([…]) was needed to add into the culture medium. Transient transfection was conducted by using Lipo 2000 (Invitrogen) transfection kit and following the instruction manual.
(§2) Electrophysiological experiment recordings were performed on the cells within 24˜48 h of transient transfections. Specifically, single channel electrophysiological recordings were performed within 8 h after transfection.
(§3) Measurement of the cell currents was respectively performed in the whole-cell recording mode, inside-out recording mode or outside-out recording mode with a HEKA EPC10 amplifier. In the whole cell electrophysiological recordings, glass microelectrodes made of borosilicate material were fire-polished to a original electrode resistance of about 3-6 MΩ. Serial resistance was compensated by 60%. The whole cell electrophysiological recordings were performed at ±80 mV. For single channel electrophysiological recordings, glass microelectrodes were fire-polished to a higher resistance of 6-8 MΩ2. Current signal was sampled at 10 kHz and filtered at 2.9 kHz. Membrane potential of the cell membrane would be clamped at +80 mV. All electrophysiological recordings were performed at room temperature (22° C.) (the maximum variation is 1° C.). […]

Assay [2] addresses T2, Nav1.7 (Homo sapiens, UniProt Q15858).
T2 construct: expressed in transfected cells; host or cells: HEK293T
As to the kind of experiment: Electrophysiological recording of Nav1.7 sodium current. The class given is cell-based. On the procedure:
as §1, §2, §3

Assay [3] has as its system Icilin-induced wet-dog shake behavior. As to the kind of experiment: Icilin-induced wet-dog shake test. The class given is in vivo, mice. On the procedure: Adult male CD1 mice (6-8 weeks old) were used as experimental animals for behavioral experiments and primary cultures of DRG neurons. Mice were raised in the condition of 12 h light/12 h dark of light cycle with adequate standard chow and water. All animal protocols were approved by the Institutional Animal Care and Use Committee (IACUC) of Zhejiang University.
At least 6 adult male CD1 mice were prepared for experimental or control groups. The animals were pretreated with Vehicle or DeC-1.2 of gradient dose via intravenous injection (i.v.) at 30 min before icilin (intraperitoneal injection, i.p., 2.5 μg/g body weight) treatment. Wet dog shake behavior was recorded and counted for 30 min following icilin administration.

Structures are written as SMILES. Entries after “also recorded” stand apart in the source; their conditions may differ. Where a SMILES comes first, the peptide text is derived from it.

T2 sequence (Q15858 whole entry): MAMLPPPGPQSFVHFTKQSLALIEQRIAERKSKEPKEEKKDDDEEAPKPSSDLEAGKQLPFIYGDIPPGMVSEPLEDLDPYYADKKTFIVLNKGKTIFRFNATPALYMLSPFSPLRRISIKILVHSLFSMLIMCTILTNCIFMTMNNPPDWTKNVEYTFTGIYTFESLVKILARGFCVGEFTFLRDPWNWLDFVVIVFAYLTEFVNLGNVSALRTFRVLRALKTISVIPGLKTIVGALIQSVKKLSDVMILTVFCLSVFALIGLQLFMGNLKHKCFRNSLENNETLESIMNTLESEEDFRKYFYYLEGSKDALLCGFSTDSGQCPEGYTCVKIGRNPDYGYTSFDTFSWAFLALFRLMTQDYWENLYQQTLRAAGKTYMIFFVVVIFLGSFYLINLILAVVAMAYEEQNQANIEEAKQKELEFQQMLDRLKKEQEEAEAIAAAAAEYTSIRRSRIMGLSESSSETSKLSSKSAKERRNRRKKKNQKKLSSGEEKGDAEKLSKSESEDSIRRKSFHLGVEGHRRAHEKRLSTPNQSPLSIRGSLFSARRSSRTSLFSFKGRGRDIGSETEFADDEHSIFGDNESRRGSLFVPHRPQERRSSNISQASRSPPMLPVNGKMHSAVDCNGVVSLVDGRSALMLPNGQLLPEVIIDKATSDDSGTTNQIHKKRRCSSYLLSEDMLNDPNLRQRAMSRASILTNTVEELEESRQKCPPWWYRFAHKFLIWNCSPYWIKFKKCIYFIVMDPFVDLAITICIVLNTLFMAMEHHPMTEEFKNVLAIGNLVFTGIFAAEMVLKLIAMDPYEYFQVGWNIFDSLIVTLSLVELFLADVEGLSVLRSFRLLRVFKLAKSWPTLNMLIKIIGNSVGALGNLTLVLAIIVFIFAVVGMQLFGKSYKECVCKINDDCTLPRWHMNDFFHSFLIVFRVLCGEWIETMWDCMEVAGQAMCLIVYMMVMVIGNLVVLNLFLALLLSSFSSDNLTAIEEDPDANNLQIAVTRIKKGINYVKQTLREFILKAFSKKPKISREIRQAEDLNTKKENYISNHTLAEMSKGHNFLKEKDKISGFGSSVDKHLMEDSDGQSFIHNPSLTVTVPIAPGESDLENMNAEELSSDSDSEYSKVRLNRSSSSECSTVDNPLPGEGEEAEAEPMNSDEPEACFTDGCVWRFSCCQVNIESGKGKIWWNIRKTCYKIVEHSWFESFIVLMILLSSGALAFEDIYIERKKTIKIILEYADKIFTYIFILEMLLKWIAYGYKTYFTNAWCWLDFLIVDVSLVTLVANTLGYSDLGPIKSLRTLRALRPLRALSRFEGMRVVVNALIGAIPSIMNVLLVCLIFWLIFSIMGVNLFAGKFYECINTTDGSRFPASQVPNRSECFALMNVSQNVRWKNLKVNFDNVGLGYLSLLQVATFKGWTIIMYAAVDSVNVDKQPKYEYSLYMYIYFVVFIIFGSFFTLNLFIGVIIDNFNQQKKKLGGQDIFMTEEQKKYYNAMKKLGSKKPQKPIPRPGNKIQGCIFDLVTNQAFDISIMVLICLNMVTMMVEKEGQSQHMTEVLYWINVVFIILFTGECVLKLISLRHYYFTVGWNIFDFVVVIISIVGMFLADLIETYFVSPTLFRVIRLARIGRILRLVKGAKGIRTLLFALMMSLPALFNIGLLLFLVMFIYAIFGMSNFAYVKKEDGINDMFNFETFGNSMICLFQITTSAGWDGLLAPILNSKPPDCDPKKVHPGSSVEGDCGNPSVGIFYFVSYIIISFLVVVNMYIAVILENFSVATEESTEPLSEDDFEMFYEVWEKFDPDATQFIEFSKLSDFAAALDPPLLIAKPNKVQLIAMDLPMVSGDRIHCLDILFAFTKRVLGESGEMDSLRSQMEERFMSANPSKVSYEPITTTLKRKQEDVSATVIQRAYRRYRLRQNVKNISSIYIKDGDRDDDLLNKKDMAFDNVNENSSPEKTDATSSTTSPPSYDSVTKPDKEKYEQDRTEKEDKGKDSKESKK

On to `C[C@@H]1NC(=O)[C@H](CCCNC(=N)N)NC(=O)[C@H](CC(=O)O)NC(=O)[C@H](CCCNC(=N)N)NC(=O)[C@H](CCCNC(=N)N)NC(=O)[C@@H](N)CSSC[C@@H](C(=O)O)NC(=O)[C@H](CCCNC(=N)N)NC(=O)[C@H](CCC(N)=O)NC(=O)[C@H](CCCNC(=N)N)NC(=O)[C@H](Cc2ccc(O)cc2)NC(=O)[C@H](Cc2c[nH]cn2)NC(=O)[C@H](CCCNC(=N)N)NC1=O` [DeC-1.2, CRRDRARHYRQRC] (HELM PEPTIDE1{C.R.R.D.R.A.R.H.Y.R.Q.R.C}$PEPTIDE1,PEPTIDE1,1:R3-13:R3$$$V2.0; N-terminus and C-terminus assumed), for which the figures for the half-inhibitory concentration (IC50) in assay [1] and in assay [2] were above 5 µM and above 100 µM, respectively. For the same molecule, the “inhibition of Nav channels” value in assay [2] (Nav1.7) was “none of the TRP channels and Nav channels were inhibited”. For the same molecule, in assay [3] (0.3 μg/g body weight i.v., 30 min before icilin), the “inhibition of WSD behaviors induced by icilin” value is “significantly inhibit”. Moreover, in assay [3] (30 μg/g body weight i.v.), the “reduction of WDS behavior in icilin treated mice” value is listed as “largely reduce WDS behavior”. The “dose dependence of inhibition of icilin-induced wet-dog shakes” value in assay [3] (gradient dose i.v.) was “dose-dependently significantly reduces; also recorded: significantly dose-dependent”.

For the origin of these results see US20240417428A1, “POLYPEPTIDE FOR INHIBITING TRPM8 AND USE THEREOF” (ZHEJIANG UNIVERSITY, priority 2021, published 2024).
